Data on 7 compounds can be found in ChEMBL document CHEMBL1127899, “Potent, acid-stable and orally active macrolide-type motilin receptor agonists, GM-611 and the derivatives” (Bioorg Med Chem Lett, 1994).

Each structure is given as a SMILES string. In brackets after ≈: the same amount, converted by molar mass.

Test [1] concerns Klebsiella pneumoniae. Briefly: Antibacterial activity against Klebsiella pneumoniae IFO 3512, activity expressed as MIC. The test is classed as functional.
Test [2] concerns Streptococcus pneumoniae. Briefly: Antibacterial activity against Streptococcus pneumoniae No.12, activity expressed as MIC. The test is classed as functional.
Test [3] has as its system Canis familiaris. Briefly: Tested for in vivo smooth muscle contractile activity, expressed as MI100 (dose to give 100 of motor index after iv administration). The test is classed as functional, Canis lupus familiaris, Muscle tissue.
Test [4] concerns Staphylococcus aureus. Briefly: Antibacterial activity against Staphylococcus aureus 209P, activity expressed as MIC. The test is classed as functional.
Test [5] addresses T1, Motilin receptor (Oryctolagus cuniculus, UniProt A5A4K8). Briefly: Concentration required for in vitro acid stability with hydrochloric acid solution (pH 2.5 ) at room temperature for 2 hr by assaying the solution for motilin receptor binding.
For test [6], the system named is Bacillus subtilis. Briefly: Antibacterial activity against Bacillus subtilis ATCC 6633, activity expressed as MIC. Format: functional.
The species named for test [7] is Oryctolagus cuniculus. Briefly: Concentration required for in vitro smooth muscle contractile activity of the compound, expressed as negative logarithm of EC50. The test is classed as functional. To be noted: Muscle tissue.
Test [8] has as its target T1, Motilin receptor. Briefly: Concentration required for in vitro motilin receptor binding, expressed as negative logarithm of IC50.
The subject of test [9] is Escherichia coli. Briefly: Antibacterial activity against Escherichia coli NIHJ JC-2, activity expressed as MIC. Format: functional.
Test [10] concerns Canis familiaris. Briefly: Tested for in vivo smooth muscle contractile activity, expressed as MI100 (dose to give 100 of motor index after ig administration). The test is classed as functional, Canis lupus familiaris, Muscle tissue.

T1 sequence (A5A4K8 whole entry): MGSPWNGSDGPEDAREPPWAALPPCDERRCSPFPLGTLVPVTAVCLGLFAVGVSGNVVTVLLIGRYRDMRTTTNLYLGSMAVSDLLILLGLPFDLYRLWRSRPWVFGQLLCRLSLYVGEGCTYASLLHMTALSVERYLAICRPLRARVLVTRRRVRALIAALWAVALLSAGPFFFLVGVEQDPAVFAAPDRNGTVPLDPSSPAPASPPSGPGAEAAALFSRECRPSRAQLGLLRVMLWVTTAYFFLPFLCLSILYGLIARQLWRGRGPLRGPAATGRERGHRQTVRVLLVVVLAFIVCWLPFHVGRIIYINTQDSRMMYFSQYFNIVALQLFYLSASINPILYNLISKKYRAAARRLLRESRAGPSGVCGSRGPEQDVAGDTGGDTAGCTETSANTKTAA

`CCC1OC(=O)C(C)C(O[C@H]2C[C@@](C)(OC)[C@@H](O)C(C)O2)C(C)[C@@H](OC2OC(C)CC(N(C)C)[C@H]2O)[C@@](C)(O)C[C@@H](C)C(=O)[C@H](C)[C@@H](O)[C@]1(C)O` (some centres undefined): the minimum inhibitory concentration (MIC) (as a rule, the lowest concentration that inhibits growth of the organism) was found to be 6.3 µg/mL (≈ 8.58 µM) in test [1]; 0.1 µg/mL (≈ 0.136 µM) in [2]; 0.39 µg/mL (≈ 0.531 µM) in [4]; 0.39 µg/mL (≈ 0.531 µM) in [6]; 100 µg/mL (≈ 136 µM) in [9]. The same compound displayed an MI100 in test [3] of 32.3 µg/kg. Besides, the IC50 (usually the point on the concentration scale where inhibition reaches its midpoint) in test [5] was 70.8 nM; in test [8], 43.7 nM. In test [7], a half-maximal effect (EC50) was put at 316 nM.
In test [3], `CC[C@H]1OC(=O)[C@H](C)[C@@H](O[C@H]2C[C@@](C)(OC)[C@@H](O)[C@H](C)O2)[C@H](C)[C@@H](O[C@@H]2O[C@H](C)C[C@H](N(C)C)[C@H]2O)[C@@]2(C)CC(C)=C(O2)[C@H](C)[C@@H](O)[C@]1(C)O` came in with an MI100 of 1 µg/kg. Also, the IC50 in [5] was 224 nM; in test [8], 3.39 nM. For the same compound, the EC50 – broadly, the concentration giving half of the maximal effect – in test [7] was 41.7 nM.
The like results for `CCC1OC(=O)C(C)C(O[C@H]2C[C@@](C)(OC)[C@@H](O)C(C)O2)C(C)[C@@H](OC2OC(C)CC(N(C)C)[C@H]2O)[C@]2(C)CC(C)C3(O[C@]1(C)[C@H](O)[C@H]3C)O2` (some centres undefined) were, in that order, more than 70 µg/kg, 170 nM, 155 nM and more than 10000 nM.
`CCC1OC(=O)C(C)C(O[C@H]2C[C@@](C)(OC)[C@@H](O)C(C)O2)C(C)[C@@H](OC2OC(C)CC(N(C)CC)[C@H]2O)[C@]2(C)CC(C)=C(O2)[C@H](C)C(=O)[C@]1(C)OC` (some centres undefined): the minimum inhibitory concentration (MIC) in [2] is 50 µg/mL (≈ 67.4 µM). In addition, the results for the MI100 in test [3] and in test [10] were 1.1 µg/kg and 4.3 µg/kg, respectively. The IC50 in [5] was 6.46 nM; in test [8], 3.8 nM. The compound also showed an EC50 in [7] of 43.7 nM.
Take `CCC1OC(=O)C(C)C(O[C@H]2C[C@@](C)(OC)[C@@H](O)C(C)O2)C(C)[C@@H](OC2OC(C)CC(N(C)C(C)C)[C@H]2O)[C@]2(C)CC(C)=C(O2)[C@H](C)C(=O)[C@]1(C)OC` (some centres undefined): the MI100 amounted to 1 µg/kg in test [3] and 1.5 µg/kg in [10]. Further, the 50% inhibitory concentration (IC50) was 7.94 nM in [5] and 6.03 nM in test [8]. In addition, the EC50 in test [7] is 38.9 nM.
In the case of `CCC1OC(=O)C(C)C(O[C@H]2C[C@@](C)(OC)[C@@H](O)C(C)O2)C(C)[C@@H](OC2OC(C)CC(N(C)CC)[C@H]2O)[C@]2(C)CC(C)=C(O2)[C@H](C)[C@@H](O)[C@]1(C)O` (some centres undefined), the results for the MIC in test [2] and in test [6] were 25 µg/mL (≈ 34.2 µM) and 100 µg/mL (≈ 137 µM), respectively. Besides, the MI100 in test [3] came to 0.9 µg/kg; in test [10], 14.9 µg/kg. Moreover, the concentration for half-maximal inhibition (IC50) in test [5] was 302 nM; in test [8], 3.16 nM. In test [7], this compound showed an EC50 of 47.9 nM.
For `CCC1OC(=O)C(C)C(O[C@H]2C[C@@](C)(OC)[C@@H](O)C(C)O2)C(C)[C@@H](OC2OC(C)CC(N(C)C)[C@H]2O)[C@]2(C)CC(C)=C(O2)[C@H](C)C(=O)[C@]1(C)OC` (some centres undefined), the MIC in [1] turned out to be 100 µg/mL (≈ 137 µM); in [2], 3.1 µg/mL (≈ 4.26 µM); in test [4], 13 µg/mL (≈ 17.9 µM); in test [6] it was 6.3 µg/mL (≈ 8.65 µM). Moreover, the MI100 is 2.9 µg/kg in test [3] and 2.4 µg/kg in [10]. The values for the IC50 in test [5] and in [8] were 8.91 nM and 9.12 nM, respectively. The same compound gave an EC50 in test [7] of 117 nM.
